Target: T1, ABCG2 (Homo sapiens, UniProt Q9UNQ0)
T1 sequence (Q9UNQ0 1-655): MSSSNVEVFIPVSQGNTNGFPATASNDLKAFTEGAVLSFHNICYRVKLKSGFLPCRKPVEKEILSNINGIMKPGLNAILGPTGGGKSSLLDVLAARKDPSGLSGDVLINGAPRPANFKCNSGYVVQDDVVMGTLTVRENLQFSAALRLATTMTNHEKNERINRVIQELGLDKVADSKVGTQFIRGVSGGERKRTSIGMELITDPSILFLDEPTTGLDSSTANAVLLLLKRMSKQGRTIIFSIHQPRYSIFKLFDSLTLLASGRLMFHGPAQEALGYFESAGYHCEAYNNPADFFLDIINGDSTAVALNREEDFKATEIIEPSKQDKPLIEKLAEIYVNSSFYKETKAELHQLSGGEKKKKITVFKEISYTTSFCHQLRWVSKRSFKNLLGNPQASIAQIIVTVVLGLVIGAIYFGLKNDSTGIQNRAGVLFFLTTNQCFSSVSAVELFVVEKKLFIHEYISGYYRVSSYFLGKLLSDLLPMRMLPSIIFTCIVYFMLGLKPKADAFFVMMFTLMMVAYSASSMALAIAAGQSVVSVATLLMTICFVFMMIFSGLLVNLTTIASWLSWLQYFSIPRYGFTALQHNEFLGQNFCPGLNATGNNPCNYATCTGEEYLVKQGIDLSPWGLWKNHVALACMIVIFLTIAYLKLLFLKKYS
Experiment: stimulation of vanadate-sensitive ATPase activity in membrane vesicles
Type: biochemical

EC50: ~14.7 µM
Structure (SMILES): O=C(CCCCCCNC(=O)c1cnc(N(c2ccccc2)c2ccccc2)nc1)NO [ricolinostat]

Reference: paper PMC7983170 (Biochemical pharmacology, 2018)
